Reference: BindingDB's records for doi:10.7270/Q2QF8R8B (Pcmd, 2008)

Biological target: T1, Cathepsin G (Homo sapiens, UniProt P08311)
T1 sequence (P08311 whole entry): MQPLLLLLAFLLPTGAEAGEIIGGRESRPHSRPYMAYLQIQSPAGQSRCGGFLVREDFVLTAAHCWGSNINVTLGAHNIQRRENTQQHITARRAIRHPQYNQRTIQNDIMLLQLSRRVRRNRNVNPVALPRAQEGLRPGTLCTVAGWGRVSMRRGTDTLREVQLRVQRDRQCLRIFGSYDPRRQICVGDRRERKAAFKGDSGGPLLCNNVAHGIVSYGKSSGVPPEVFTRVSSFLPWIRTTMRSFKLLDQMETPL
Assay: IC50 of CTSG protease blockers – biochemical, confirmation, dose response (AID 832)

SMILES	IC50 [µM]
COc1ccccc1-c1cc(C(=O)Nc2cccnc2)no1 [5-(2-methoxyphenyl)-N-(3-pyridinyl)-3-isoxazolecarboxamide]	43.2
O=C(c1csc2c1CCCC2)n1cccn1 [1-(4,5,6,7-tetrahydro-1-benzothien-3-ylcarbonyl)-1H-pyrazole]	3.61
CSc1nc(-c2ccco2)nn1C(=O)c1ccc(C)cc1 [[3-(furan-2-yl)-5-methylsulfanyl-1,2,4-triazol-1-yl]-(4-methylphenyl)methanone]	1.02
Cc1ccsc1C=c1sc2ncnn2c1=O [5-[(3-methyl-2-thienyl)methylene][1,3]thiazolo[3,2-b][1,2,4]triazol-6(5H)-one]	4.66
Cc1cccc(-n2nnc(C(=O)Nc3ccc(F)cc3)c2N)c1 [5-amino-N-(4-fluorophenyl)-1-(3-methylphenyl)-1H-1,2,3-triazole-4-carboxamide]	> 50
CC(C)C(CC(=O)N1CCCCC1)C1CCOC(C)(C)C1 (configuration not stated) [3-(2,2-dimethyl-4-oxanyl)-4-methyl-1-(1-piperidinyl)-1-pentanone]	> 50
COCC(C)NC(=O)c1noc2c1CCc1cc(OC)ccc1-2 (configuration not stated) [7-methoxy-N-(1-methoxypropan-2-yl)-4,5-dihydrobenzo[g][1,2]benzoxazole-3-carboxamide]	6.4
Nc1nc(C(=O)N2CCOCC2)nn1C(=O)c1ccc(Cl)cc1 [(5-azanyl-3-morpholin-4-ylcarbonyl-1,2,4-triazol-1-yl)-(4-chlorophenyl)methanone]	4.51
COc1ccc(S(=O)(=O)n2nc(OC(=O)c3cccs3)cc2N)cc1 [2-thiophenecarboxylic acid [5-amino-1-(4-methoxyphenyl)sulfonyl-3-pyrazolyl] ester]	2.52
Cc1ccc(C(=O)n2cnnc2N)cc1C [4-(3,4-dimethylbenzoyl)-4H-1,2,4-triazol-3-amine]	1.58
COC(=O)c1ccccc1NC(=O)c1cc2sccc2n1C [2-[(4-Methyl-4H-thieno[3,2-b]pyrrole-5-carbonyl)-amino]-benzoic acid methyl ester]	30.4
O=C(c1noc2c1CCc1ccccc1-2)N1CCCc2ccccc21 [3-(3,4-dihydroquinolin-1(2H)-ylcarbonyl)-4,5-dihydronaphtho[2,1-d]isoxazole]	47.6
CSc1nc(-c2ccco2)nn1C(=O)c1cccs1 [[3-(furan-2-yl)-5-methylsulfanyl-1,2,4-triazol-1-yl]-thiophen-2-ylmethanone]	1.78
O=C(c1noc2c1CCc1ccccc1-2)N1CCc2ccccc2C1 [3-(3,4-dihydroisoquinolin-2(1H)-ylcarbonyl)-4,5-dihydronaphtho[2,1-d]isoxazole]	19.6
COC(=O)c1sc(N2C(=O)C(=O)C(C(=O)c3ccc(C)o3)C2c2ccc(F)cc2)nc1C (configuration not stated) [2-[2-(4-fluorophenyl)-4-hydroxy-3-[(5-methyl-2-furanyl)-oxomethyl]-5-oxo-2H-pyrrol-1-yl]-4-methyl-5-thiazolecarboxylic acid methyl ester]	> 50
CSc1nc(-c2ccco2)nn1C(=O)c1ccco1 [2-furanyl-[3-(2-furanyl)-5-(methylthio)-1,2,4-triazol-1-yl]methanone]	11.7
Cc1ccc(S(=O)(=O)n2nc(OC(=O)c3cccs3)cc2N)cc1	8.07

More lines, now with the values ahead:

IC50 [µM]	SMILES
4.13	COc1ccc2c(c1)CCc1c(C(=O)NCCCn3ccnc3)noc1-2 [MLS000087439]
20.2	CC[C@@H](C)[C@H](NC(=O)OC(C)(C)C)c1nnc(S(=O)(=O)Cc2cc(C)ccc2C)o1 [MLS000042033]
> 50	O=C1CCCC(=O)C1=CNCCc1ccccc1 [MLS000108318]
14.5	COc1ccc2c(c1)CCc1c(C(=O)Nc3ccc(OC)c(OC)c3)noc1-2 [MLS000087452]
3.26	Nc1cc(OC(=O)c2cccs2)nn1S(=O)(=O)c1ccccc1 [SMR000021562]
11.1	COc1ccccc1-c1cc(C(=O)NCc2ccc(Cl)cc2)no1 [MLS000087096]
5.32	O=C(NCCN1CCOCC1)c1noc2c1CCc1ccccc1-2 [MLS000087427]
4.25	Cc1cc(NC(=O)c2noc3c2CCc2ccccc2-3)no1 [MLS000116422]
44.4	COc1ccc(-c2cc(C(=O)Nc3c(C)nn(Cc4ccccc4Cl)c3C)no2)cc1 [MLS000087058]
2.17	CC(=O)Nc1cccc(-c2nc3ccccc3c(=O)o2)c1 [MLS000061720]
